Measured values: US7112564B2, “Biodegradable glucosaminemuramyl peptides for apoptosis modulation” (Zylacta Corporation, priority 2003, dated 2006)

Tested on: A549 cells (human lung cancer)
Assay: Inhibition of TNF alpha cytotoxicity (LDH release into culture supernatant)
Assay type: cell-based
Settings: ingredient at 1 ug/ml, FIG. 2
Experimental: A549 cells (human lung cancer) were seeded in six-well plates, and after 24 h (70% confluence) treated with 25 ug/ml cycloheximide (CHX) and either 100 U/ml human TNF (Beoringer) or an agonist monoclonal antibody to FAS (Panerva) in concentration 200 ng/ml. GMDP, and GMHP were added just prior to the cytokine in the concentrations discussed in the figure legends. Twenty hours after the treatment 20 ul of the cultured supernatant was removed and tested for the LDH activity in 96 well plates in triplicate. Samples were assayed on an EL340 Microplate reader (Biotec Instruments, Inc) at 490-nm wavelength.
The purpose of this experiment was to show the synergistic effect of NAG and D-glutamine on LDH release. Technically the experiment was similar to example 1. Both ingredients were added in concentration 1 ug/ml. […] Almost 50% inhibition of LDH activity was noticed for NAG+D-glutamine composition. […] The glucosamine muramyl hexapeptide has 3 D-amino acids while GMDP has only one D-isoglutamine.

Which “protection of cells from TNF alpha cytotoxicity (LDH release)” value does the source give for NC(=O)CC[C@H](N)C(=O)O [L-glutamine] here?
Its value is “does not protect cells from TNF alpha cytotoxicity”.
